From EP1247803A2, “Indolinone compounds suitable for modulation of protein kinases” (Sugen, Inc., priority 1996, dated 1998)

Key:
PDGF-R = PDGF-R (Homo sapiens, UniProt P09619); assay: PDGF-R ELISA; assay type: cell-based
Text: A PDGF-R ELISA is described in International Patent Publication No. WO 96/40116, published December 19, 1996 by Tang et al.

EGFR = target: T1, EGFR (Homo sapiens, UniProt P00533); assay: EGFR ELISA assay (in vitro kinase activity, EGFR captured from A431 cell lysate); assay type: biochemical; set-up: concentration or dose not given beside the values
T1 construct: Add 7 ug A431 cell lysate per well (EGFR source); endogenous in cells; host or cells: A431
T1 sequence (P00533 25-1210): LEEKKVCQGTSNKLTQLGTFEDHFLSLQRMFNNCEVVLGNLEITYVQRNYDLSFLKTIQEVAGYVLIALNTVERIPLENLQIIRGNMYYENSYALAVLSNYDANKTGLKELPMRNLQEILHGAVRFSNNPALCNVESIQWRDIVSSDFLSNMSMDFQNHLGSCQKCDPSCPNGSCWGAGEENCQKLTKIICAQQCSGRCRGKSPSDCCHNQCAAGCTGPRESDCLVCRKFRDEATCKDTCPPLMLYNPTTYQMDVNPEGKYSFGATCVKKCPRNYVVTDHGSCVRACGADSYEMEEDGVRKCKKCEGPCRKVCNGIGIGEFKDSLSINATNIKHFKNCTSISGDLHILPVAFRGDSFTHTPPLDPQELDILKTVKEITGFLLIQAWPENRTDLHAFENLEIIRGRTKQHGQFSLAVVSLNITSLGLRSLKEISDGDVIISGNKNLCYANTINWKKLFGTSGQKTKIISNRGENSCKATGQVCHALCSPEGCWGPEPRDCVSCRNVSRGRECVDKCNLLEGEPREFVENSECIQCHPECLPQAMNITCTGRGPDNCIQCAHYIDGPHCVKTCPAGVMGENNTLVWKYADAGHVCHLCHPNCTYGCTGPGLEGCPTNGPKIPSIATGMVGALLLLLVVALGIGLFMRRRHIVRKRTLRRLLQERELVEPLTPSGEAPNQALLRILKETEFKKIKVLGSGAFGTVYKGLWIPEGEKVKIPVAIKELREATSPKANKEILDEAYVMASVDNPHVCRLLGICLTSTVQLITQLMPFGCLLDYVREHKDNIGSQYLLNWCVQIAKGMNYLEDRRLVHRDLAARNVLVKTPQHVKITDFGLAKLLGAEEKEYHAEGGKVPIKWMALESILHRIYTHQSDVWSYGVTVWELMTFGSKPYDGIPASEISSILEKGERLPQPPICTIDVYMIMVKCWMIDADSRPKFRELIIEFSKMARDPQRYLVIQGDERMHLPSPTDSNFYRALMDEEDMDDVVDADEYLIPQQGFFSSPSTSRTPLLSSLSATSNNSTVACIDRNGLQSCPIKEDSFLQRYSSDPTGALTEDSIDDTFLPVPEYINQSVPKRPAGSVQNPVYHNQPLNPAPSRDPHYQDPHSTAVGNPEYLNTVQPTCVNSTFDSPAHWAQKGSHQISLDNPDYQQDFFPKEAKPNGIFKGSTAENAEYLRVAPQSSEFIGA
Summary of the method: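 EGFR from A431 lysate was captured on plates coated with anti-EGFR antibody. Compounds were added 30 min before a 5 min phosphorylation with 3 µM ATP/5 mM MnCl2, which was stopped with 20 mM EDTA. Phosphotyrosine was detected with rabbit anti-phosphotyrosine, then a peroxidase-conjugated secondary and ABTS/H2O2, read at 410 nm.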

Chain of PDGF-R (P09619 33-1106, species assumed): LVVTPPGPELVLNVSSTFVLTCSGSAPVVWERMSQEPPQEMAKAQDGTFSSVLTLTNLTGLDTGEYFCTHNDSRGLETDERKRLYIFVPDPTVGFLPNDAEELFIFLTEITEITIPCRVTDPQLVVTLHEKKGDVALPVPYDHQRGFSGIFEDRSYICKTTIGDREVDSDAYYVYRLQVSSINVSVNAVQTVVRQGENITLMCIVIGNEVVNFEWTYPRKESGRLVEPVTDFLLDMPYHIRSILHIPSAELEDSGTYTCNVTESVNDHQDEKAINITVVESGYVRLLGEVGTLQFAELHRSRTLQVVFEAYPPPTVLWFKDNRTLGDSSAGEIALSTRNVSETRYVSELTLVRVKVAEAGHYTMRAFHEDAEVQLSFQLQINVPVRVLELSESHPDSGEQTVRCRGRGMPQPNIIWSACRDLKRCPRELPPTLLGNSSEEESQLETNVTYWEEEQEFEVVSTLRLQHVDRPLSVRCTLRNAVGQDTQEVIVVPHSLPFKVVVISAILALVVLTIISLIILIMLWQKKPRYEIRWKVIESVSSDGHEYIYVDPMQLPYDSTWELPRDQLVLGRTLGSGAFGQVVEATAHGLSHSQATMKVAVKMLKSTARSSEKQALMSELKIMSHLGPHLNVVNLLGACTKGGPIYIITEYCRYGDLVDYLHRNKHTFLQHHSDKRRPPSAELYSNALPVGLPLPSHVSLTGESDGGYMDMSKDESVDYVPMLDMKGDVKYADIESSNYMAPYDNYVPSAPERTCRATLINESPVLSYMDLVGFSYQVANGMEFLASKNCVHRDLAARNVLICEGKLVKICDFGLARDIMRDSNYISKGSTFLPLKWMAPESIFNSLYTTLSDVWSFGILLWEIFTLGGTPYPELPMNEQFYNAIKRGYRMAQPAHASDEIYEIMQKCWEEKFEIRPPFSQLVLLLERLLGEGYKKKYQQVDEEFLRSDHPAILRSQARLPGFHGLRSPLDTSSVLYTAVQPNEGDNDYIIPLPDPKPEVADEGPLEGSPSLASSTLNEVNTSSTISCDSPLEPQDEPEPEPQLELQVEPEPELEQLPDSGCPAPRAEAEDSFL

Compound | PDGF Kinase %Inhibition (PDGF-R) [%] | Biochem EGFR %Inhibition (EGFR) [%]
O=C1Nc2ccc(I)cc2C1=Cc1c(F)cccc1C(F)(F)F [10728/B09] | -0.4 | 31.7
O=C1Nc2ccc(CCCl)cc2C1=Cc1ccccc1Sc1ccc(Cl)cc1 [10727/G05] | -2.3 | 11.2
O=C(O)COc1ccccc1C=C1C(=O)Nc2ccc(I)cc21 [10728/B10] | 2.7 | 16.8
O=C(O)COc1ccccc1C=C1C(=O)Nc2c(Br)cc(Br)cc21 [10728/A10] | 1.8 | -3.4
CCc1cc(CC)c(C=C2C(=O)Nc3ccc(S(=O)(=O)Nc4ccc(C(F)(F)F)cc4)cc32)[nH]1 [10727/E03] | 5.7 | 35.5
Cc1[nH]c(C=C2C(=O)Nc3ccc(CCCl)cc32)c(Br)c1Br [10717/G11] |  | 71.7
CNS(=O)(=O)c1ccc2c(c1)C(=Cc1cc(O)ccc1O)C(=O)N2 [10727/D10] | 9.4 | 86.2
COc1ccc(OC)c(C=C2C(=O)Nc3ccc(Br)c(C)c32)c1 [10728/C02] | 42.3 | -35.4
O=C1Nc2ccc(S(=O)(=O)N3CCOCC3)cc2C1=Cc1cc(Cl)cc(Br)c1O [10727/F04] | -10.3 | 17.9
CCOC(=O)c1cc(C=C2C(=O)Nc3c(Br)cc(Br)cc32)oc1C [10718/A06] |  | 19.4
O=C1Nc2c(Br)cc(Br)cc2C1=Cc1cc(C(F)(F)F)ccc1F [10728/A08] | 0.5 | 24.1
COc1cccc(OC)c1C=C1C(=O)Nc2ccc(Br)c(C)c21 [10728/C03] | 24.9 | 9.7
COc1cc(C=C2C(=O)Nc3c(Br)cc(Br)cc32)cc2c1OCO2 [10728/A11] | -9.3 | -0.6
COc1cccc(OC)c1C=C1C(=O)Nc2c(Br)cc(Br)cc21 [10728/A03] | -7.9 | -25.8
CNS(=O)(=O)c1ccc2c(c1)C(=Cc1ccccc1Sc1ccc(Cl)cc1)C(=O)N2 [10727/D05] | -0.1 | 3.4
COc1cccc(C=C2C(=O)Nc3ccc(S(=O)(=O)N4CCOCC4)cc32)c1OC [10727/F11] | 18.1 | -2.6
O=C1Nc2ccc(S(=O)(=O)Nc3ccc(C(F)(F)F)cc3)cc2C1=Cc1cc(Cl)cc(Br)c1O [10727/E04] | -7.4 | 82.1
CCOC(=O)c1c(C)[nH]c(C=C2C(=O)Nc3c(Br)cc(Br)cc32)c1C [10718/A02] |  | 11.3
N#Cc1ccc(C=C2C(=O)Nc3ccc(S(=O)(=O)Nc4ccc(C(F)(F)F)cc4)cc32)cc1 [10727/E09] | 15.9 | 15.1
O=C1Nc2c(Br)cc(Br)cc2C1=Cc1ccc2c(c1)Cc1ccccc1-2 [10728/A06] | -3.1 | 17.2
CCc1cc(CC)c(C=C2C(=O)Nc3ccc(CCCl)cc32)[nH]1 [10727/G03] | -10.3 | 19.4

Compound | PDGF Kinase %Inhibition (PDGF-R) [%] | Biochem EGFR %Inhibition (EGFR) [%]
O=C1Nc2ccc(I)cc2C1=Cc1cc(C(F)(F)F)ccc1F [10728/B08] | -6.6 | 34.7
COc1cc(C=C2C(=O)Nc3ccc(Br)c(C)c32)cc(OC)c1 [10728/C04] | 27.2 | 16.1
CNS(=O)(=O)c1ccc2c(c1)C(=Cc1ccc3c(c1)Cc1ccccc1-3)C(=O)N2 [10728/D06] | 5.8 | 5.8
CNS(=O)(=O)c1ccc2c(c1)C(=Cc1cccc(OC)c1OC)C(=O)N2 [10727/D11] | 17.4 | -23.7
O=C1Nc2c(Br)cc(Br)cc2C1=Cc1c(F)cccc1C(F)(F)F [10728/A09] | 10.3 | 19.3
Cc1c(Br)ccc2c1C(=Cc1cccc(C(F)(F)F)c1F)C(=O)N2 [10728/C07] | 8.9 | 8.3
Cc1c(Br)ccc2c1C(=Cc1ccc3c(c1)Cc1ccccc1-3)C(=O)N2 [10728/C06] | 2.7 | 4.2
CCOC(=O)CCc1c(C(=O)OCC)[nH]c(C=C2C(=O)Nc3c(Br)cc(Br)cc32)c1CC(=O)OCC [10718/A05] |  | -6.9
COC(=O)c1[nH]c(C)c(C=C2C(=O)Nc3c(Br)cc(Br)cc32)c1C(=O)OC [10718/A07] |  | -10.6
CNS(=O)(=O)c1ccc2c(c1)C(=Cc1ccc(C#N)cc1)C(=O)N2 [10727/D09] | 7.2 | 15.1
O=C1Nc2c(Br)cc(Br)cc2C1=Cc1ccc2ccccc2c1O [10718/A04] |  | 27.3
O=C1Nc2ccc(I)cc2C1=Cc1cccc(C(F)(F)F)c1F [10728/B07] | 20.9 | 11.1
N#Cc1ccc(C=C2C(=O)Nc3ccc(CCCl)cc32)cc1 [10727/G09] | 10.8 | -9.7
CNS(=O)(=O)c1ccc2c(c1)C(=Cc1c(OC)cccc1OC)C(=O)N2 [10728/D03] | 32.0 | 10.8
COc1ccc(OC)c(C=C2C(=O)Nc3c(Br)cc(Br)cc32)c1 [10728/A02] | -7.9 | 9.2
CNS(=O)(=O)c1ccc2c(c1)C(=Cc1coc3ccccc3c1=O)C(=O)N2 [10727/D07] | -14.7 | 10.5
O=C1Nc2ccc(CCCl)cc2C1=Cc1cc(O)ccc1O [10727/G10] | 10.8 | 85.1
CCN(CC)c1ccc(C=C2C(=O)Nc3ccc(S(=O)(=O)N4CCOCC4)cc32)cc1 [10727/F02] | 11.5 | -0.5
Cc1c(Br)ccc2c1C(=Cc1cc(C(F)(F)F)ccc1F)C(=O)N2 [10728/C08] | 9.4 | 17.5
N#Cc1cccc(C=C2C(=O)Nc3ccc(CCCl)cc32)c1 [10727/G08] | -7.4 | -19.6
O=C1Nc2ccc(S(=O)(=O)Nc3ccc(C(F)(F)F)cc3)cc2C1=Cc1cc2c(cc1Cl)OCO2 [10727/E06] | 9.4 | -9.3

Compound | PDGF Kinase %Inhibition (PDGF-R) [%] | Biochem EGFR %Inhibition (EGFR) [%]
O=C1Nc2ccc(S(=O)(=O)Nc3ccc(C(F)(F)F)cc3)cc2C1=Cc1cc(O)ccc1O [10727/E10] | 5.0 | 85.1
N#Cc1cccc(C=C2C(=O)Nc3ccc(S(=O)(=O)N4CCOCC4)cc32)c1 [10727/F08] | 10.1 | -5.4
COc1cc(N(C)C)ccc1C=C1C(=O)Nc2ccc(Br)c(C)c21 [10728/C05] | 23.2 | 16.1
O=C1Nc2ccc(S(=O)(=O)N3CCOCC3)cc2C1=Cc1coc2ccccc2c1=O [10727/F07] | 2.1 | -8.9
CNS(=O)(=O)c1ccc2c(c1)C(=Cc1cc3c(cc1Cl)OCO3)C(=O)N2 [10727/D06] | 10.8 | 8.6
CCN(CC)c1ccc(C=C2C(=O)Nc3ccc(S(=O)(=O)Nc4ccc(C(F)(F)F)cc4)cc32)cc1 [10727/E02] | -6.7 | 22.4
N#Cc1cccc(C=C2C(=O)Nc3ccc(S(=O)(=O)Nc4ccc(C(F)(F)F)cc4)cc32)c1 [10727/E08] | 23.9 | 25.6
O=C1Nc2ccc(CCCl)cc2C1=Cc1cc(Cl)cc(Br)c1O [10727/G04] | -27.0 | 80.6
COc1cccc(C=C2C(=O)Nc3ccc(S(=O)(=O)Nc4ccc(C(F)(F)F)cc4)cc32)c1OC [10727/E11] | 7.9 | -33.4
O=C1Nc2ccc(S(=O)(=O)Nc3ccc(C(F)(F)F)cc3)cc2C1=Cc1coc2ccccc2c1=O [10727/E07] | 10.1 | 7.1
COc1cccc(OC)c1C=C1C(=O)Nc2ccc(I)cc21 [10728/B03] | 10.3 | -36.6
O=C1Nc2c(Br)cc(Br)cc2C1=Cc1cccc(C(F)(F)F)c1F [10728/A07] | 31.1 | 59.6
CNS(=O)(=O)c1ccc2c(c1)C(=Cc1ccc(N(C)C)cc1OC)C(=O)N2 [10728/D05] | 7.2 | 12.7
COc1cc(C=C2C(=O)Nc3ccc(I)cc32)cc(OC)c1 [10728/B04] | 9.8 | -2.0
COc1cc(Br)c(O)c(C=C2C(=O)Nc3c(Br)cc(Br)cc32)c1 [10718/A03] |  | -6.1
CCN(CC)c1ccc(C=C2C(=O)Nc3ccc(CCCl)cc32)cc1 [10727/G02] | -20.5 | 37.5
COc1cc(N(C)C)ccc1C=C1C(=O)Nc2c(Br)cc(Br)cc21 [10728/A05] | 4.5 | 17.7
COc1ccc(OC)c(C=C2C(=O)Nc3ccc(I)cc32)c1 [10728/B02] | -0.4 | -10.5
O=C1Nc2c(Br)cc(Br)cc2C1=Cc1ccc(Cl)c([N+](=O)[O-])c1 [10718/A08] |  | 5.8
